Measurements: patent publication US20250154172A1, “PRMT5 INHIBITORS AND USES THEREOF” (Gilead Sciences, Inc., priority 2023, published 2025)

tested on: HCT116 MTAP-deleted cell lines; test: Cell viability assay for HCT116 isogenic pair (CellTitre-Glo, 7 days); assay type: cell-based; settings: Homo sapiens, HCT-116, 168 h, 7 days of treatment, cell line not given
Procedure: Control compounds were analyzed in parallel each time for quality control.
In Brief, on Day −1, a serial dilution of stock compounds in DMSO was performed using BioMek liquid handlers and dispensed using Echo acoustic dispenser into 384 well plates. Both tool compounds and sample compounds were spotted in the same plate for a dose response of PRMT5 inhibitors. Compound plates were stored as frozen until the cells were ready for seeding.
On Day 0, 100 HCT WT or HCT116 MTAP-deleted cells were seeded in compound-containing 384 well plates (50 μl per well) in RPMI 1640 media supplemented with 10% heat inactivated fetal bovine serum, Glutamax and penicillin streptomycin using EL460 liquid dispenser 5 μl cassette (BioTek, part no. 7170011). After equilibrating the plate in room temperature, the cells were incubated for 7 days inside the sealed incubator set at 37° C. with 90% humidity and 5% CO2.
On Day 7, the viability of cells was measured using a CTG assay kit (CellTitre-Glo; Promega cat no. G7573). Shortly, 40 μl per well of luminescent cell viability assay reagent were dispensed using EL460 liquid dispenser 5 μl cassette. CTG luminescence signal was measured using an EnVision plate reader (PerkinElmer) in accordance with manufacturer's instruction. The CCso values for each compound after 7 days of treatment were calculated using 4 parameter non-linear logistical curve fit.
For the cell viability assay ie CC50 shown in nM in Table 3.

Compound | CC50 [nM]
Cn1ncc2c(N)nc3cnc(C(=O)N4CCO[C@@H]5Cc6cc(Br)ccc6[C@@H]54)cc3c21 [Example Ca-33, (4-amino-1-methyl-1H-pyrazolo[4,3-c][1,7]naphthyridin-8-yl)((4aS,9aR)-7-bromo-2,3,9,9a-tetrahydroindeno[2,1-b][1,4]oxazin-4(4aH)-yl)methanone] | 9
Cn1ncc2c(N)nc3cnc(C(=O)N4CC[C@H]5C[C@@H]4c4ccc(C(F)(F)F)nc4O5)cc3c21 [Example Ca-2, (4-amino-1-methyl-1H-pyrazolo[4,3-c][1,7]naphthyridin-8-yl)((2S,6R)-9-(trifluoromethyl)-3,4-dihydro-2H-2,6-methanopyrido[2,3-b][1,5]oxazocin-5(6H)-yl)methanone] | 8
Cn1ncc2c(N)nc3ccc(C(=O)N4CCC[C@@H]5Oc6cc(C(F)(F)F)ccc6[C@@H]54)cc3c21 [Example Ca-5, (4-amino-1-methyl-1H-pyrazolo[4,3-c]quinolin-8-yl)((4aS,9bS)-7-(trifluoromethyl)-3,4,4a,9b-tetrahydrobenzofuro[3,2-b]pyridin-1(2H)-yl)methanone] | 8
Nc1nc2cnc(C(=O)N3CC[C@H]4C[C@@H]3c3ccc(OC(F)(F)F)cc3O4)cc2c2c1COC2 [Example Ca-46, (4-amino-1,3-dihydrofuro[3,4-c][1,7]naphthyridin-8-yl)((2S,6R)-9-(trifluoromethoxy)-3,4-dihydro-2H-2,6-methanobenzo[b][1,5]oxazocin-5(6H)-yl)methanone] | 25
Cn1ncc2c3cc(C(=O)N4CC[C@H]5C[C@@H]4c4ccc(C(F)(F)F)cc4O5)ncc3nc(N)c21 [Example Ca-44, (4-amino-3-methyl-3H-pyrazolo[3,4-c][1,7]naphthyridin-8-yl)((2S,6R)-9-(trifluoromethyl)-3,4-dihydro-2H-2,6-methanobenzo[b][1,5]oxazocin-5(6H)-yl)methanone] | 139
Cn1ncc2c(N)nc3cnc(C(=O)N4CC[C@H]5C[C@@H]4c4ccc(OC(F)F)cc45)cc3c21 [Example Ca-15, (4-amino-1-methyl-1H-pyrazolo[4,3-c][1,7]naphthyridin-8-yl)((1R,5S)-7-(difluoromethoxy)-1,3,4,5-tetrahydro-2H-1,5-methanobenzo[c]azepin-2-yl)methanone] | 10
C[C@H]1CN(C(=O)c2cc3c(cn2)nc(N)c2cnn(C)c23)[C@H]2c3ccc(Cl)cc3C[C@H]2O1 (single isomer, unassigned) [Example Ca-38] | 129
Nc1nc2cnc(C(=O)N3CC[C@H]4C[C@@H]3c3c(Cl)cc(C(F)(F)F)cc3O4)cc2c2c1COC2 [Example Ca-60, (4-amino-1,3-dihydrofuro[3,4-c][1,7]naphthyridin-8-yl)((2S,6R)-7-chloro-9-(trifluoromethyl)-3,4-dihydro-2H-2,6-methanobenzo[b][1,5]oxazocin-5(6H)-yl)methanone] | 227
Cn1ncc2c(N)nc3cc(F)c(C(=O)N4CCO[C@@H]5Cc6cc(C(F)(F)F)ccc6[C@@H]54)cc3c21 (racemic) [Example Ca-10, (Rac)-(4-amino-7-fluoro-1-methyl-1H-pyrazolo[4,3-c]quinolin-8-yl)(7-(trifluoromethyl)-2,3,9,9a-tetrahydroindeno[2,1-b][1,4]oxazin-4(4aH)-yl)methanone] | 10
Cn1ncc2c(N)nc3ccc(C(=O)N4CCCC5OCc6cc(C(F)(F)F)ccc6C54)cc3c21 (stereo not shown) [Example Ca-9, (4-amino-1-methyl-1H-pyrazolo[4,3-c]quinolin-8-yl)(8-(trifluoromethyl)-2,3,4,4a,6,10b-hexahydro-1H-isochromeno[4,3-b]pyridin-1-yl)methanone] | 56
Cn1ncc2c(N)nc3cnc(C(=O)N4CCC[C@@H]5Oc6cc(OC(F)(F)F)ccc6[C@@H]54)cc3c21 [Example Ca-6, (4-amino-1-methyl-1H-pyrazolo[4,3-c][1,7]naphthyridin-8-yl)((4aS,9bS)-7-(trifluoromethoxy)-3,4,4a,9b-tetrahydrobenzofuro[3,2-b]pyridin-1(2H)-yl)methanone] | 8
Cc1ccc2c(c1)C[C@H]1OCCN(C(=O)c3cc4c(cn3)nc(N)c3cnn(C)c34)[C@@H]21 [Example Ca-36, (4-amino-1-methyl-1H-pyrazolo[4,3-c][1,7]naphthyridin-8-yl)((4aS,9aR)-7-methyl-2,3,9,9a-tetrahydroindeno[2,1-b][1,4]oxazin-4(4aH)-yl)methanone] | 95
Cn1ncc2c(N)nc3ccc(C(=O)N4CCO[C@@H]5Cc6cc(C(F)(F)F)ccc6[C@@H]54)cc3c21 (racemic) [Example Ca-11, (Rac)-(4-amino-1-methyl-1H-pyrazolo[4,3-c]quinolin-8-yl)(7-(trifluoromethyl)-2,3,9,9a-tetrahydroindeno[2,1-b][1,4]oxazin-4(4aH)-yl)methanone] | 65
Cn1ncc2c(N)nc3cc(F)c(C(=O)N4CCC[C@@H]5Oc6cc(C(F)(F)F)ccc6[C@@H]54)cc3c21 [Example Ca-4, (4-amino-7-fluoro-1-methyl-1H-pyrazolo[4,3-c]quinolin-8-yl)((4aS,9bS)-7-(trifluoromethyl)-3,4,4a,9b-tetrahydrobenzofuro[3,2-b]pyridin-1(2H)-yl)methanone] | 3
CN(C(=O)c1cc2c(cn1)nc(N)c1cnn(C)c12)[C@H]1c2ccc(C(F)(F)F)cc2[C@@H]2C[C@@H]21 (single isomer, unassigned) [Example Ca-25] | 43
Cn1ncc2c(N)nc3cnc(C(=O)N4CCC[C@@H]5Cc6cc(C(F)(F)F)ccc6[C@@H]54)cc3c21 (racemic) [Example Ca-24, (Rac)-(4-amino-1-methyl-1H-pyrazolo[4,3-c][1,7]naphthyridin-8-yl)((4aR,9bR)-7-(trifluoromethyl)-2,3,4,4a,5,9b-hexahydro-1H-indeno[1,2-b]pyridin-1-yl)methanone] | 42
